Test results reported in patent US10294234B2, “HIV inhibitor compounds” (priority 2017, dated 2019).

Columns and labels:
[1] = tested on: HIV-1 (IIIB) in MT-4 cells; assay: MT-4 HIV High Resolution Antiviral Assay; type: cell-based
Experimental: Compounds were tested in a high-throughput 384-well assay format for their ability to inhibit the replication of HIV-1 (IIIB) in MT-4 cells. Compounds were serially diluted (1:3) in DMSO on 384-well polypropylene plates and further diluted 200-fold into complete RPMI media (10% FBS, 1% P/S) using the Biotek Micro Flow and Agilent ECHO acoustic dispenser. Each plate contained up to 8 test compounds, with negative (No Drug Control) and 5 uM AZT positive controls. MT-4 cells were pre-infected with 10 uL of either RPMI (mock-infected) or a fresh 1:250 dilution of an HIV-1 (IIIB) concentrated virus stock. Infected and uninfected MT-4 cells were further diluted in complete RPMI media and added to each plate using a Micro Flow dispenser. After 5 days incubation in a humidified and temperature controlled incubator (37° C.), Cell Titer Glo (Promega) was added to the assay plates to quantify the amount of luciferase. EC50 and CC50 values were defined as the compound concentration that causes a 50% decrease in luminescence signal, and were calculated using a sigmoidal dose-response model to generate curve fits.
MT-4 HIV High Resolution Antiviral Assay
Assay protocol is identical to that described for the MT-4 antiviral assay with the following changes: Each drug is run in 2 series of quadruplicates with different starting concentrations for each series and 19 1.5 fold dilutions performed across the plate. […] Data is analyzed and Hill coefficients determined in Graph Pad Prism (San Diego, Calif.). EC95s were determined by the formula EC95=(19)^I/hill coefficient×EC50. HD values were determined for certain compounds and reported in Table 5 below as an illustrative example.

[2] = target: recombinant HIV protease (Human immunodeficiency virus type 1 group M subtype B, UniProt P04585); assay: biochemical
Experimental: Inhibitor potency was measured using an enzymatic assay with a fluorogenic readout. […] After a 20-minute pre-incubation, the enzymatic reaction was initiated by the addition of the fluorogenic substrate (2-aminobenzoyl)Thr-Ile-Nle-(p-nitro)Phe-Gln-Arg (Bachem) to a final concentration of 40 μM. The total volume of the assay solution was 100 µL. The reaction was measured over 20 minutes on a Tecan Infinite M1000 plate reader using an excitation wavelength of 320 nm and a detection wavelength of 420 nm. The slopes of the progress curves were the measure of reaction rates.

[3] = 3H Human Predicted Clearance Assay (tritiated analogs); type: in vitro ADME; set-up: unit not given here; details: tritiated analogs, human liver microsomes
Experimental: 3H Human Predicted Clearance Assay:
For certain compounds, tritiated analogs (H^3) were prepared to further determined their human predicted clearance with increased resolution. Those studies were performed as described above using the tritiated analogs. Data from those compounds is found in Table 2 below and reported in FIG. 1 (note ATV and DRV were not tritiated).

## COC(=O)N[C@H](C(=O)N[C@@H](Cc1ccc(C#Cc2ccc(N3CC4CCC(C3)N4C3COC3)nc2)cc1)[C@@H](O)CN(Cc1c(F)cc(-c2ccn(C(F)F)n2)cc1F)NC(=O)[C@@H](NC(=O)OC)C(C)(C)C(F)(F)F)C(C)(C)C(F)(F)F [Example 58, Methyl ((5S,8S,9S,14S)-11-(4-(1-(difluoromethyl)-1H-pyrazol-3-yl)-2,6-difluorobenzyl)-16,16,16-trifluoro-9-hydroxy-15,15-dimethyl-8-(4-((6-(8-(oxetan-3-yl)-3,8-diazabicyclo[3.2.1]octan-3-yl)pyridin-3-yl)ethynyl)benzyl)-3,6,13-trioxo-5-(1,1,1-trifluoro-2-methylpropan-2-yl)-2-oxa-4,7,11,12-tetraazahexadecan-14-yl)carbamate]
[1]; Human immunodeficiency virus 1, IIIB, MT4, high resolution assay, 40 data points, MT-4 cells, read-out: EC50
  EC50: 6.8 nM
[1]; calculated from Hill coefficient and EC50
  EC95: 11.4 nM
[1]; high resolution assay, Graph Pad Prism
  Hill-coefficient: 5.8
[2]
  Ki: 0.06 nM
[3]
  3H Human Predicted Cl.: 0.05
